These results are taken from patent US20220411397A1, “ANALOGUES OF N-ACYL-HOMOSERINE LACTONES AND PHARMACEUTICAL COMPOSITION COMPRISING SAME” (SORBONNE UNIVERSITE, priority 2019, published 2022).

Common to all, as to type: cell-based
One data set deals with E. coli K12 strain. Put plainly: Bactericidal dosage on the E. coli K12 strain (absorbance at 600 nm). The note with it: all concentrations, maximum 100 μM shown; 18 h. The method, then:
1.1.4. Bactericidal Dosage • The K12 strain of E. coli was grown on agar on day 0 and a colony was transferred to the LYBHI liquid bacterial culture medium on day 1. On day 2, the colony was diluted 1:100 in LYBHI medium and amplified for 18 hours before transfer to an opaque 96-well plate. In each well, LYBHI, controls or increasing doses of tested molecules and bacteria were distributed. The absorbance at 600 nm was read at start-up (t=0) and after an 18-hour incubation. The raw absorbance values were corrected using the absorbance of solutions without bacteria. All experiments were performed twice, each with 4 replicates.
The E. coli K12 strain was cultured at D0 on agar gel, and then a selected colony was transferred to a liquid bacterial culture LYBHI medium at D1. At day 2, this colony was diluted 1:100 in LYBHI medium, and maintained for 18 hours for expansion before distribution in an opaque 96-well plate. In each well were distributed: LYBHI medium, bacterial culture, and test or control compounds. The absorbance of the wells was read at 600 nm at t0 and t18h. The raw absorbance values were corrected against the absorbance of the wells containing only LYBHI medium without bacteria or compounds.

The subject of a further data set is Raw264.7 murine cells. Put plainly: Cytotoxicity test, LDH secretion, Raw264.7. The note with it: for cytotoxicity (LDH), Raw264.7: stimulated, low concentrations. The method, then: 1.2.6. […] To measure the concentration of LDH in the cell lysate, 800 μL of NADH was added to 10 μL of […] and 190 μL of 0.1 M PBS in a plastic cuvette, and the decrease in the absorbance at 340 nm was monitored for 1 min. […] The percentage of cytotoxicity could be established with the formula: […]
The cytotoxicity of the tested and control compounds was evaluated using a measurement test of the LDH (Lactate Dehydrogenase) secretion. This test is based on the measurement of the amount of LDH secreted by the cells in their supernatant, compared to the amount of LDH that will remain in the intracellular compartment. This ratio provides an indication of the membrane damage suffered by the cells, and thus of the cytotoxicity of the compound.
Two methods were used to perform this test: the measurement using an extemporaneously prepared pyruvate/NADH solution, or using the Cytotoxicity Detection Kit^PLUS(LDH) from the manufacturer Roche (Sigma-Aldrich).
Pyruvate/NADH method: pyruvate/NADH solution prepared with 4.1 mg pyruvic acid (0.62 mM) and 7.7 mg NADH (0.18 mM) in 60 ml of 0.1M PBS (pH 7.4).
For the measurement of the LDH concentration in the supernatants, 800 μL of NADH was added to 200 μL of supernatant in plastic spectrometry cuvettes, and the decrease in absorbance of the final solution was read at 340 nm for 1 min. For the measurement of the LDH concentration in the cell lysates, 800 μL of NADH was added to 10 μL of cell lysates and 190 μL of 0.1M PBS in plastic spectrometry cuvettes, and the decrease in absorbance of the final solution was read at 340 nm for 1 min. The percentage of LDH secreted was then calculated by the ratio of the decay slopes of the absorbance of the supernatants and of the cell lysates (respectively).
Cytotoxicity Detection Kit^PLUS (LDH) method: absorbance test performed according to the manufacturer's instructions. The percentage of LDH secreted was then calculated by the formula: […]

The test system of the next data set is Raw 264.7 murine cells. Put plainly: Stimulation of Raw 264.7 murine cells by IFN-γ/LPS, IL-6 secretion (ELISA). The note with it: for activity on IFN-γ/LPS-stimulated Raw 264.7 cells compared with natural 3-oxo-C12-HSL: 1-50 μM range. An excerpt: 1.1.2. The Raw 264.7 Cell Line • The Raw 264.7 cell line consists of murine cells of macrophage type derived from cell line transformed by the virus of the Abelson leukaemia and providing from BALB/c mice. This cell line is very often used as a model of macrophages in vitro. The Raw 264.7 cells are capable of a phagocytosis and a pinocytosis, can kill the target cells by antibody-dependent cytotoxicity, and secrete a wide range of inflammatory cytokines as well as nitric oxide (NO). In addition, the Raw 264.7 cells are a very convenient cell line: the cells grow rapidly, appreciate the small diameter wells, and should be used before confluence. These conditions make it an advantageous line for the compound screening.
The cells were used between the passages 13 and 26. • The Raw 264.7 cells used are from the ATCC bank. They were grown in DMEM supplemented with 10% heat-inactivated foetal calf serum and 1% L-glutamine to 200 mM, and maintained at 37° C. with a 5% CO2/air atmosphere. The medium was changed every two days.
1.2.2. Stimulation of Raw 264.7 with LIPS and IFN-γ • Raw 264.7 cells were seeded in 12-well plates at 75,000 cells/well, or 24-well plates at 40,000 cells/well, to reach 80-90% confluence after 3 days of culture. […] The cells were harvested by scraping in 100 μL of PBS 1×/well and stored at −80° C. before the quantification of the total protein. […]
1.2.5. Quantification of the Murine Cytokines • The levels of IL-6 murine cytokines produced by cells were determined in cell supernatants or lysates using the commercially available “BD OptEIA Mouse IL-6 ELISA Set” from BD Biosciences (San Jose, Calif., USA, ref. 555240). All the ELISA kits were used according to the instructions of the manufacturer. • The cytokine rates were first normalized to the protein content determined in the corresponding cell lysates. […]
(In general: In an ELISA, binding on a coated surface is turned into a signal by an enzyme label.)

Each structure is given as a SMILES string.

As to `CCCCCCCCCC(=O)CC(=O)N[C@H]1CCCC[C@@H]1O` [I-2, N-[(1S,2S)-2-hydroxycyclohexyl]-3-oxo-dodecanamide], the “comparative survival of E. coli K12” value with E. coli K12 strain is “No significant differences”. For the same molecule, the “cytotoxicity (LDH), Raw264.7” value with Raw264.7 murine cells is reported as “not cytotoxic at low concentrations”. Besides, the “activity on IFN-γ/LPS-stimulated Raw 264.7 cells compared with natural 3-oxo-C12-HSL” value in the data set on Raw 264.7 murine cells is given as “more active than the reference molecule 3-oxo-C12-HSL”.
Take `CCCCCCCCCC(=O)CC(=O)N[C@H]1CCCC[C@H]1O` [I-4, N-[(1S,2R)-2-hydroxycyclohexyl]-3-oxo-dodecanamide]: the “comparative survival of E. coli K12” value in the data set on E. coli K12 strain is “No significant differences”. Further, the “toxicity (LDH), Raw264.7” value with Raw264.7 murine cells (at 50 μM) is listed as “toxic”. Also, the “LDH secreted compared with the diastereomer, Raw264.7” value in the data set with Raw264.7 murine cells (at all concentrations) is reported as “greater than that secreted in the presence of (S,S)-3oxoC12-ACH”. Moreover, the “cytotoxicity (LDH), Raw264.7” value in the data set with Raw264.7 murine cells is given as “not cytotoxic at low concentrations”. In addition, the “activity on IFN-γ/LPS-stimulated Raw 264.7 cells compared with natural 3-oxo-C12-HSL” value in the data set with Raw 264.7 murine cells is on record as “a higher activity than the natural 3-oxo-C12 HSL”.
Take `CCCCCCCCCC(=O)CC(=O)Nc1cc(Cl)ccc1O` [I-6, N-(5-chloro-2-hydroxyphenyl)-3-oxododecanamide]: in the data set with E. coli K12 strain, the “comparative survival of E. coli K12” value is given as “No significant differences”. The “toxicity (LDH), Raw264.7” value in the data set with Raw264.7 murine cells (any of the concentrations tested) is “not toxic”. Also, the “activity on IFN-γ/LPS-stimulated Raw 264.7 cells compared with natural 3-oxo-C12 HSL” value with Raw 264.7 murine cells (10-50 μM range) was “a significantly higher activity than that of the natural 3-oxo-C12 HSL”.
